# Experimental data: patent publication US10543198B2 (Celgene Quanticel Research, Inc., priority 2014, dated 2020)
# Columns and labels:
# full-length human LSD1 = full-length human LSD1 (Homo sapiens (Human), UniProt O60341); test: In Vitro Enzyme Inhibition Assay - LSD-1 (TR-FRET); format: biochemical; conditions: 0.1 nM LSD1, H3K4me1-biotin peptide
# Experimental: This assay determines the ability of a test compound to inhibit LSD1 demethylase activity.
# The enzymatic assay of LSD1 activity is based on Time Resolved-Fluorescence Resonance Energy Transfer (TR-FRET) detection.
# The ability of the compounds disclosed herein to inhibit LSD1 activity was quantified and the respective IC50 value was determined.
# THP-1 (AML) cells = test: LSD1 CD11b Cellular Assay (flow cytometry); format: cell-based; conditions: Homo sapiens, 96 h; CD11b expression in THP-1 cells, 4 days incubation
# Experimental: To analyze LSD1 inhibitor efficacy in cells, a CD11b flow cytometry assay was performed. LSD1 inhibition induces CD11b expression in THP-1 (AML) cells which can be measured by flow cytometry. […] LSD1 test compounds were serially diluted in DMSO. The dilutions were added to each well accordingly to a final concentration of 0.2% DMSO. The cells were incubated at 37 degrees Celsius in 5% CO2 for 4 days. 250 μL of each well was transferred to a well in a 96 well round bottom plate. The plate was centrifuged at 1200 rpm at 4 degrees Celsius in a Beckman Coulter Alegra 6KR centrifuge for 5 minutes. The media was removed leaving the cells at the bottom of the wells. The cells were washed in 100 μL cold HBSS (Hank's Balanced Salt Solution) plus 2% BSA (Bovine Serum Albumin) solution and centrifuged at 1200 rpm at 4 degrees Celsius for 5 minutes. The wash was removed. […] The cells were centrifuged and washed two times in 100 μl HBSS plus 2% BSA. After the final spin the cells were resuspended in 100 μL HBSS plus 2% BSA containing 1 ug/mL DAPI (4′,6-diamidino-2-phenylindole). The cells were then analyzed by flow cytometry in a BD FACSAria machine. Cells were analyzed for CD11b expression. The percent of CD11b expressing cells for each inhibitor concentration was used to determine an IC50 curve for each compound analyzed.
Structure (SMILES),IC50 (full-length human LSD1),IC50 (THP-1 (AML) cells)
"Cc1ccc(-c2nc3ccn(CC4(F)CCNC4)c3cc2-c2ccc(C#N)cc2)cc1 (stereo not shown) [Example 9, 4-[1-[(3-fluoropyrroridin-3-yl)methyl]-5-(4-methylphenyl)pyrrolo[3,2-b]pyridin-6-yl]benzonitrile]",< 0.1 µM,0.1 to 1 µM
"Cn1cc2cc(-c3ncc(N4CCC(N)CC4)nc3-c3ccc(C#N)c(F)c3)ccc2n1 [Example 49, 4-[6-(4-aminopiperidin-1-yl)-3-(2-methyl-2H-indazol-5-yl)pyrazin-2-yl]-2-fluorobenzonitrile]",< 0.1 µM,< 0.1 µM
"CNC1CCN(c2cnc(-c3ccc4c(c3)ncn4C)c(-c3ccc(C#N)c(F)c3)n2)CC1 [Example 65, 2-fluoro-4-[6-[4-(methylamino)piperidin-1-yl]-3-(1-methylbenzimidazol-5-yl)pyrazin-2-yl]benzonitrile]",< 0.1 µM,< 0.1 µM
"Cn1cnc2cc(-c3ncc(N4CCC(N)CC4)nc3-c3ccc(C#N)c(F)c3)c(F)c(F)c21 [Example 75, 4-[6-(4-aminopiperidin-1-yl)-3-(6,7-difluoro-1-methylbenzimidazol-5-yl)pyrazin-2-yl]-2-fluorobenzonitrile]",< 0.1 µM,< 0.1 µM
"CNC1CCN(c2cnc(C#CC(C)(C)O)c(-c3ccc(C#N)c(F)c3)n2)CC1 [Example 66, 2-fluoro-4-[3-(3-hydroxy-3-methylbut-1-ynyl)-6-[4-(methylamino)piperidin-1-yl]pyrazin-2-yl]benzonitrile]",< 0.1 µM,< 0.1 µM
